# Experimental data from US6156700A, “3-(1,2-Benzisothiazol- and isoxazol-5-yl)-2,4(1H,3H)-pyrimidinedione or thione and 3-(1,2-benzisothiazol- and isoxazol-5-yl)-4(3H)-pyrimidinone or thione herbicidal agents” (American Cyanmid Company, priority 1998, dated 2000).
# Experiments:
# [1] = tested on: Velvetleaf, Abutilon theophrasti; assay: Preemergence herbicidal evaluation, ABUTH; type: in vivo, Medic.; conditions: 0.2500 kg/ha
# Excerpt: Results of herbicide evaluation are expressed on a rating scale (0-9). The scale is based upon a visual observation of plant stand, vigor, malformation, size, chlorosis and overall plant appearance as compared with a control.
# The preemergence herbicidal activity of the test compounds of the present invention is exemplified by the following tests in which the seeds of a variety of monocotyledonous and dicotyledonous plants are separately mixed with potting soil and planted on top of approximately one inch of soil in separate pint cups. After planting, the cups are sprayed with the selected aqueous acetone solution containing test compound in sufficient quantity to provide the equivalent of about 0.0156 to 0.500 kg per hectare of test compound per cup. The treated cups are then placed on greenhouse benches, watered and cared for in accordance with conventional greenhouse procedures. From four to five weeks after treatment, the tests are terminated and each cup is examined and rated according to the rating system provided in Example 185.
# The compounds evaluated are reported by compound number given in Example 185.
# [2] = tested on: Ragweed, Common, Ambrosia artemisifolia; assay: Postemergence herbicidal evaluation, AMBEL; type: in vivo, L.; conditions: 0.2500 kg/ha
# Procedure, shortened: (§1)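 Rates of about 0.0157–0.500 kg/ha were delivered through a 40 psi spray nozzle to seedlings grown around two weeks, using a 50/50 acetone/water vehicle with 0.5% TWEEN 20. A 0–9 visual score versus control followed 4–5 weeks later.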
# [3] = tested on: Soybean, Williams, Glycine max; assay: Postemergence herbicidal evaluation, GLXMAW; type: in vivo, (L.) Merr. cv Williams; conditions: 0.2500 kg/ha
# Procedure, shortened: as §1
# [4] = tested on: CYPIR Rice Flatsedge; assay: Postemergence weed control, flooded paddy (Table IV); type: in vivo, Cyperus iria; design: scale not given here
# Excerpt: (§2) Plastic containers containing weeds which are 3 to 5 cm tall and rice seedlings at the 1.5 to 2.5 leaf stage are flooded with water. The water is maintained at 1.5 to 3 cm above the soil surface for the duration of the experiment. Test compounds are applied as aqueous/acetone mixtures 50/50 v/v directly into the flood water to provide the equivalent of about 0.0313 to 0.500 kg/ha of active ingredient. The treated containers are placed on greenhouse benches and cared for in accordance with conventional greenhouse procedures. Three to four weeks after treatment, the test is terminated and each container is examined and herbicidal effect rated according to the rating system provided in Example 185. The compounds evaluated are reported by compound number given in Example 185.
# [5] = tested on: Galium, Galium aparine; assay: Postemergence herbicidal evaluation, GALAP; type: in vivo; conditions: 0.2500 kg/ha
# Procedure, shortened: as §1
# [6] = tested on: Barnyardgrass, Echinochloa crus-galli; assay: Postemergence herbicidal evaluation, ECHCG; type: in vivo, (L.) Beau; conditions: 0.2500 kg/ha
# Procedure, shortened: as §1
# [7] = tested on: SAGPY Arrowhead (Pygmaea); assay: Postemergence weed control, flooded paddy (Table IV); type: in vivo, Sagittaria pygmaea; design: scale not given here
# Excerpt: as §2
# [8] = tested on: Lambsquarters, Common, Chenopodium album; assay: Postemergence herbicidal evaluation, CHEAL; type: in vivo, L.; conditions: 0.2500 kg/ha
# Procedure, shortened: as §1
# [9] = tested on: ECHORC Watergrass (Calif.); assay: Postemergence weed control, flooded paddy (Table IV); type: in vivo, Echinochloa oryzoides; design: scale not given here
# Excerpt: as §2
# [10] = tested on: Foxtail, Green, Setaria viridis; assay: Postemergence herbicidal evaluation, SETVI; type: in vivo, (L.) Beau; conditions: 0.2500 kg/ha
# Procedure, shortened: as §1
# [11] = tested on: ORYSAT Rice, Tebonnet; assay: Tolerance of transplanted rice to post-transplant application (Table III); type: in vivo, Oryza sativa; design: scale not given here; conditions: crop tolerance
# Method: The tolerance of transplanted rice to post-transplanted herbicide applications is determined as follows: two ten-day-old rice seedlings (cv. Tebonnet) are transplanted into silt loam soil in 32 oz. plastic containers with a diameter of 10.5 cm and no drainage holes. After transplanting, the containers are flooded and the water level is maintained at 1.5 to 3 cm above the soil surface. Three days after transplanting, the flooded soil surface of the containers is treated with the selected aqueous/acetone 50/50 v/v mixture containing the test compounds to provide the equivalent of about 0.0313 to 0.500 kg/ha of active ingredient. The treated containers are placed on greenhouse benches, watered such that the water level is maintained as stated above, and cared for in accordance with conventional greenhouse procedures. Three to four weeks after treatment, the test is terminated and each container is examined and herbicidal effect rated according to the rating system provided in Example 185. The compounds evaluated are reported by compound number given in Example 185.
# [12] = tested on: ORYSAT Rice, Tebonnet; assay: Rice tolerance, flooded paddy (Table IV); type: in vivo, Oryza sativa; design: scale not given here; conditions: crop tolerance
# Excerpt: as §2
SMILES,herbicide rating (0-9) [1],herbicide rating (0-9) [2],herbicide rating (0-9) [3],herbicidal effect rating ([4]; 0.1250 kg/ha),herbicidal effect rating ([4]; 0.2500 kg/ha),herbicidal effect rating ([4]; 0.5000 kg/ha),herbicide rating (0-9) [5],herbicide rating (0-9) [6],herbicidal effect rating ([7]; 0.1250 kg/ha),herbicidal effect rating ([7]; 0.2500 kg/ha),herbicidal effect rating ([7]; 0.5000 kg/ha),herbicidal effect rating ([9]; 0.1250 kg/ha),herbicidal effect rating ([9]; 0.2500 kg/ha),herbicidal effect rating ([9]; 0.5000 kg/ha),herbicide rating (0-9) [10],herbicidal effect rating ([11]; 0.0313 kg/ha),herbicidal effect rating ([11]; 0.0625 kg/ha),herbicidal effect rating ([11]; 0.1250 kg/ha),herbicidal effect rating ([11]; 0.2500 kg/ha),herbicidal effect rating ([11]; 0.5000 kg/ha),also measured
"COc1cc(C)ccc1-c1nsc2ccc(-n3c(=O)cc(C(F)(F)F)n(C)c3=O)cc12 [Compound 7, 3-[3-(2-Methoxy-p-tolyl)-1,2-benzisothiazol-5-yl]-1-methyl-6-(trifluoromethyl)-2,4(1H,3H)-pyrimidinedione]",9.0,9.0,9.0,9.0,9.0,9.0,8.0,8.0,4.0,9.0,9.0,9.0,9.0,9.0,9.0,6.0,8.0,7.0,7.0,9.0,herbicide rating (0-9) [8]: 9.0; herbicidal effect rating ([12]; 0.1250 kg/ha): 7.0; herbicidal effect rating ([12]; 0.2500 kg/ha): 7.0; herbicidal effect rating ([12]; 0.5000 kg/ha): 8.0
"COC(=O)COc1cc(C)ccc1-c1nsc2ccc(-n3c(=O)cc(C(F)(F)F)n(C)c3=O)cc12 [Compound 8, Methyl {{6-{5-[3,6-dihydro-3-methyl-4-(trifluoromethyl)-2,6-dioxo-1(2H)-pyrimidinyl]-1,2-benzisothiazol-3-yl}-m-tolyl}oxy}acetate]",9.0,9.0,9.0,9.0,9.0,9.0,9.0,9.0,4.0,9.0,9.0,9.0,9.0,9.0,9.0,7.0,7.0,9.0,9.0,9.0,herbicide rating (0-9) [8]: 9.0; herbicidal effect rating ([12]; 0.1250 kg/ha): 6.0; herbicidal effect rating ([12]; 0.2500 kg/ha): 8.0; herbicidal effect rating ([12]; 0.5000 kg/ha): 9.0
"COC(=O)C(C)Oc1cc(C)ccc1-c1nsc2ccc(-n3c(=O)cc(C(F)(F)F)n(C)c3=O)cc12 (centres unmarked) [Compound 9, Methyl 2-{{6-{5-[3,6-dihydro-3-methyl-4-(trifluoromethyl)-2,6-dioxo-1(2H)-pyrimidinyl]-1,2-benzisothiazol-3-yl}-m-tolyl}oxy}propionate]",9.0,9.0,9.0,9.0,9.0,9.0,8.0,9.0,2.0,9.0,9.0,9.0,9.0,9.0,9.0,6.0,7.0,7.0,8.0,9.0,herbicidal effect rating ([12]; 0.1250 kg/ha): 7.0; herbicidal effect rating ([12]; 0.2500 kg/ha): 9.0; herbicidal effect rating ([12]; 0.5000 kg/ha): 9.0
